Laboratory results published in ChEMBL document CHEMBL1201862, “PubChem BioAssay data set” (2004).
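How tested: cells in 96-well plates exposed to compound for 48 hours at five concentrations. Abbreviation: GI50, concentration required for 50% inhibition of growth.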 Calls of active or inactive are those of the source. No stated cut-off is given here; in the data, active = GI50 up to about 1.1 µM and inactive = higher.

Tests used:
Test in all cases: growth of human tumour cells (NCI), 48 h
[1] = test system: A498
[2] = test system: HL-60
[3] = test system: CCRF-CEM
[4] = test system: SF-539
[5] = test system: NCI-H460
[6] = test system: MDA-MB-435
[7] = test system: A549
[8] = test system: OVCAR-5
[9] = test system: MDA-MB-231
[10] = test system: MDA-N
[11] = test system: OVCAR-4
[12] = test system: TK-10
[13] = test system: SW-620
[14] = test system: 786-0
[15] = test system: SNB-19
[16] = test system: MCF7
[17] = test system: Hs-578T
[18] = test system: SK-OV-3
[19] = test system: BT-549
[20] = test system: UO-31

SMILES	GI50 [1]	GI50 [2]	GI50 [3]	GI50 [4]	GI50 [5]	GI50 [6]	GI50 [7]	GI50 [8]	GI50 [9]	GI50 [10]	GI50 [11]	GI50 [12]	GI50 [13]	GI50 [14]	GI50 [15]	GI50 [16]	GI50 [17]	GI50 [18]	GI50 [19]	GI50 [20]
CCOP(=O)(OCC)C(C)(CC)N/C(=N\C1=NC(C(F)(F)F)(C(F)(F)F)N=C(C(F)(F)F)O1)NC(NC(C)=O)(C(F)(F)F)C(F)(F)F (configuration not stated)	38.9 µM (inactive)	17.8 µM (inactive)	15.8 µM (inactive)	40.2 µM (inactive)	35.3 µM (inactive)	32.7 µM (inactive)	53.5 µM (inactive)	45 µM (inactive)	22.9 µM (inactive)	52.5 µM (inactive)	16.5 µM (inactive)	46.9 µM (inactive)	56.8 µM (inactive)	37.3 µM (inactive)	60.4 µM (inactive)	21.9 µM (inactive)	31.8 µM (inactive)	27.4 µM (inactive)		
COC(=O)C1(O)C(c2ccccc2)=NC2(C)CCCC21 (configuration not stated)	> 100 µM (inactive)		> 100 µM (inactive)		> 100 µM (inactive)	> 100 µM (inactive)	> 100 µM (inactive)	> 100 µM (inactive)	> 100 µM (inactive)	> 100 µM (inactive)	> 100 µM (inactive)	> 100 µM (inactive)	> 100 µM (inactive)	> 100 µM (inactive)	> 100 µM (inactive)		> 100 µM (inactive)	> 100 µM (inactive)	> 100 µM (inactive)	> 100 µM (inactive)
O=C(Cn1c(=O)oc2ccc(C(=O)c3ccc(F)cc3)cc21)c1ccc([N+](=O)[O-])cc1	25.5 µM (inactive)	8.2 µM (inactive)	19.1 µM (inactive)	41.1 µM (inactive)	32.8 µM (inactive)	19.3 µM (inactive)	37.1 µM (inactive)	> 100 µM (inactive)	28.9 µM (inactive)	21 µM (inactive)	25.5 µM (inactive)	36.6 µM (inactive)	36.7 µM (inactive)	33 µM (inactive)	47.1 µM (inactive)	31.7 µM (inactive)	20.4 µM (inactive)	69.8 µM (inactive)		19.6 µM (inactive)
CNC(=O)c1nnn(Cc2ccccc2)c1S			> 100 µM (inactive)		> 100 µM (inactive)	> 100 µM (inactive)	> 100 µM (inactive)	> 100 µM (inactive)	> 100 µM (inactive)	> 100 µM (inactive)	> 100 µM (inactive)	> 100 µM (inactive)	> 100 µM (inactive)	> 100 µM (inactive)	> 100 µM (inactive)	> 100 µM (inactive)		> 100 µM (inactive)	> 100 µM (inactive)	> 100 µM (inactive)
CN(C)C(=O)OC(Cn1cncn1)(Cn1cncn1)c1ccc(Cl)cc1Cl	> 100 µM (inactive)	> 100 µM (inactive)	> 100 µM (inactive)	> 100 µM (inactive)	> 100 µM (inactive)	> 100 µM (inactive)	> 100 µM (inactive)	> 100 µM (inactive)	> 100 µM (inactive)		> 100 µM (inactive)	> 100 µM (inactive)	> 100 µM (inactive)	> 100 µM (inactive)	> 100 µM (inactive)	> 100 µM (inactive)	> 100 µM (inactive)	> 100 µM (inactive)	> 100 µM (inactive)	> 100 µM (inactive)
CC(C)(C)COC1C2(OCCO2)C2CCC1(C)C2(C)C (configuration not stated)	> 100 µM (inactive)	24.8 µM (inactive)	18.8 µM (inactive)	37.8 µM (inactive)	33.7 µM (inactive)	36 µM (inactive)	23.6 µM (inactive)	28.9 µM (inactive)	31.8 µM (inactive)	43.2 µM (inactive)	45 µM (inactive)	> 100 µM (inactive)	19.7 µM (inactive)	19.4 µM (inactive)	20.6 µM (inactive)	19.1 µM (inactive)	18.8 µM (inactive)	66.2 µM (inactive)		26.2 µM (inactive)
O=Nn1c2ccccc2c2ccccc21	23.8 µM (inactive)	59.3 µM (inactive)	45.7 µM (inactive)	> 100 µM (inactive)	9.86 µM (inactive)	77.4 µM (inactive)	17.5 µM (inactive)	> 100 µM (inactive)	65.2 µM (inactive)		90.8 µM (inactive)	70.5 µM (inactive)	66.8 µM (inactive)	95.1 µM (inactive)	88.9 µM (inactive)	45 µM (inactive)	46.2 µM (inactive)	84.5 µM (inactive)	73.1 µM (inactive)	34.4 µM (inactive)
COc1cc2c(c(OC)c1)/C(=C/Sc1ccccc1)C(=O)N(C(C)(C)C)C2	32.4 µM (inactive)	25 µM (inactive)	29.2 µM (inactive)	44.7 µM (inactive)		22.2 µM (inactive)		52.6 µM (inactive)	23.4 µM (inactive)	23.5 µM (inactive)	33.1 µM (inactive)	54.6 µM (inactive)	38 µM (inactive)	28.5 µM (inactive)		29.8 µM (inactive)		14.2 µM (inactive)	26 µM (inactive)	
C(=N\c1ccc(-c2nc3ccccc3[nH]2)cc1)/c1ccc[nH]1	69.5 µM (inactive)	1.91 µM (inactive)	11.4 µM (inactive)	> 100 µM (inactive)		41.8 µM (inactive)	> 100 µM (inactive)	> 100 µM (inactive)		34.2 µM (inactive)	54.2 µM (inactive)	> 100 µM (inactive)	73.3 µM (inactive)	83.4 µM (inactive)		25.7 µM (inactive)	4.3 µM (inactive)		> 100 µM (inactive)	69.3 µM (inactive)
CC1CCC2C(C)C(=O)OC2C2(C)C(=O)C=CC12 (configuration not stated)		6.82 µM (inactive)	3.92 µM (inactive)	> 10 µM (inactive)	> 10 µM (inactive)	> 10 µM (inactive)	> 10 µM (inactive)	> 10 µM (inactive)	> 10 µM (inactive)	6.14 µM (inactive)	> 10 µM (inactive)	> 10 µM (inactive)	> 10 µM (inactive)	> 10 µM (inactive)	> 10 µM (inactive)	8.79 µM (inactive)	> 10 µM (inactive)	> 10 µM (inactive)		> 10 µM (inactive)
CCc1nnc(CC)n1-n1c(Cc2ccccc2)n[nH]c1=O			> 100 µM (inactive)	> 100 µM (inactive)		> 100 µM (inactive)	> 100 µM (inactive)	> 100 µM (inactive)	> 100 µM (inactive)	> 100 µM (inactive)	> 100 µM (inactive)	> 100 µM (inactive)	> 100 µM (inactive)	> 100 µM (inactive)	> 100 µM (inactive)	> 100 µM (inactive)		> 100 µM (inactive)	> 100 µM (inactive)	> 100 µM (inactive)
N=S(c1ccccc1[N+](=O)[O-])c1ccccc1[N+](=O)[O-]	28 µM (inactive)	0.933 µM (active)	1.04 µM (active)	3.13 µM (inactive)			4.45 µM (inactive)	4.13 µM (inactive)	1.77 µM (inactive)	1.36 µM (inactive)	0.914 µM (active)	3.84 µM (inactive)		1.38 µM (inactive)	9.33 µM (inactive)	0.129 µM (active)	4.68 µM (inactive)	8.63 µM (inactive)	1.62 µM (inactive)	1.87 µM (inactive)
O=C1NC(Cc2ccc(O)cc2)C(=O)NC1Cc1ccc(O)cc1 (configuration not stated)	> 100 µM (inactive)	> 100 µM (inactive)	> 100 µM (inactive)	> 100 µM (inactive)	> 100 µM (inactive)	> 100 µM (inactive)	> 100 µM (inactive)	> 100 µM (inactive)	> 100 µM (inactive)	30.1 µM (inactive)	> 100 µM (inactive)	> 100 µM (inactive)	> 100 µM (inactive)	> 100 µM (inactive)	> 100 µM (inactive)	> 100 µM (inactive)	> 100 µM (inactive)	> 100 µM (inactive)		> 100 µM (inactive)
COc1ccccc1NC(=O)C1=C(C)NC(C)=C(C(=O)Nc2ccccc2OC)C1c1cccc2ccccc12	33.9 µM (inactive)	29.9 µM (inactive)	20.7 µM (inactive)	> 100 µM (inactive)	20.1 µM (inactive)		21.9 µM (inactive)	> 100 µM (inactive)			2.77 µM (inactive)	> 100 µM (inactive)	> 100 µM (inactive)	> 100 µM (inactive)	53 µM (inactive)			> 100 µM (inactive)		13.7 µM (inactive)
Cc1cn(CC2=NCC(C)(C)N2)c(=O)[nH]c1=O	> 100 µM (inactive)		< 0.01 µM (active)		> 100 µM (inactive)		> 100 µM (inactive)	> 100 µM (inactive)	> 100 µM (inactive)	> 100 µM (inactive)		> 100 µM (inactive)	> 100 µM (inactive)	> 100 µM (inactive)	> 100 µM (inactive)	> 100 µM (inactive)	> 100 µM (inactive)	> 100 µM (inactive)	> 100 µM (inactive)	> 100 µM (inactive)
COc1ccc2nc3cc(Cl)ccc3c(Sc3ccc([N+](=O)[O-])cc3)c2c1	> 10 µM (inactive)	> 100 µM (inactive)	> 10 µM (inactive)	> 10 µM (inactive)	> 10 µM (inactive)		> 10 µM (inactive)	> 10 µM (inactive)			> 10 µM (inactive)	> 10 µM (inactive)	> 10 µM (inactive)	> 10 µM (inactive)	> 10 µM (inactive)			> 10 µM (inactive)		> 10 µM (inactive)
